In ChEMBL document CHEMBL2424564, “Vermelhotin, an anti-inflammatory agent, suppresses nitric oxide production in RAW 264.7 cells via p38 inhibition” (J Nat Prod, 2013):
pIC50: −log10 of the molar value. Activity calls are given as the source filed them. The rule behind the calls is not given here.

Key:
RAW264.7 [1] = test: Antiinflammatory activity in mouse RAW264.7 cells assessed as inhibition of LPS-induced nitric oxide production at 50 uM incubated for 15 mins prior to LPS challenge measured after 20 hrs by Griess assay relative to control; format: functional
RAW264.7 [2] = test: Antiinflammatory activity in mouse RAW264.7 cells assessed as inhibition of LPS-induced nitric oxide production incubated for 15 mins prior to LPS challenge measured after 20 hrs by Griess assay; format: functional, cell-based
RAW264.7 [3] = test: (§1) Cytotoxicity against mouse RAW264.7 cells assessed as cell survival after 20 hrs by SRB assay; format: cell-based; conditions: raw264.7, 20 h
[4] = as §1; format: cell-based; conditions: RAW264.7 cells, read-out: Survival
RAW264.7 [5] = test: Downregulation of iNOS mRNA expression in LPS-stimulated mouse RAW264.7 cells at 16.7 uM incubated for 15 mins prior to LPS stimulation measured after 6 hrs by qRT-PCR analysis (reference value: 503.95 no unit); format: functional
RAW264.7 [6] = test: Effect on JNK phosphorylation in LPS-stimulated mouse RAW264.7 cells at 1.9 to 16.7 uM incubated for 15 mins prior to LPS stimulation measured after 15 mins by Western blot analysis; format: cell-based
RAW264.7 [7] = test: Activation of NF-kappaB in mouse RAW264.7 cells assessed as inhibition of LPS-induced IkappaB degradation at 1.9 to 16.7 uM incubated for 15 mins prior to LPS stimulation measured after 15 mins by Western blot analysis; format: cell-based
RAW264.7 [8] = test: Downregulation of iNOS protein expression in LPS-stimulated mouse RAW264.7 cells incubated for 15 mins prior to LPS stimulation measured after 20 hrs by Western blot analysis; format: functional, cell-based
[9] = molecular target: T1, MAP kinase p38 (Mus musculus) (UniProt P47811+O08911+Q9WUI1+Q9Z1B7); test: Inhibition of p38 phosphorylation in LPS-stimulated mouse RAW264.7 cells incubated for 15 mins prior to LPS stimulation measured after 15 mins by Western blot analysis; format: cell-based
RAW264.7 [10] = test: Downregulation of iNOS mRNA expression in LPS-stimulated mouse RAW264.7 cells at 5.6 uM incubated for 15 mins prior to LPS stimulation measured after 6 hrs by qRT-PCR analysis (reference value: 503.95 no unit); format: functional
RAW264.7 [11] = test: Downregulation of iNOS mRNA expression in LPS-stimulated mouse RAW264.7 cells incubated for 15 mins prior to LPS stimulation measured after 6 hrs by qRT-PCR analysis; format: functional, cell-based
RAW264.7 [12] = test: Downregulation of iNOS mRNA expression in LPS-stimulated mouse RAW264.7 cells at 1.9 uM incubated for 15 mins prior to LPS stimulation measured after 6 hrs by qRT-PCR analysis (reference value: 503.95 no unit); format: functional
RAW264.7 [13] = test: Downregulation of iNOS mRNA expression in LPS-stimulated mouse RAW264.7 cells at 16.7 uM incubated for 15 mins prior to LPS stimulation measured after 6 hrs by qRT-PCR analysis relative to vehicle-treated control; format: functional
RAW264.7 [14] = test: Effect on ERK phosphorylation in LPS-stimulated mouse RAW264.7 cells at 1.9 to 16.7 uM incubated for 15 mins prior to LPS stimulation measured after 15 mins by Western blot analysis; format: cell-based
[15] = molecular target: T1, MAP kinase p38 (Mus musculus); test: Inhibition of p38 phosphorylation in LPS-stimulated mouse RAW264.7 cells at 16.7 uM incubated for 15 mins prior to LPS stimulation measured after 15 mins by Western blot analysis; format: cell-based

Row | Compound | inhibition at 50 µM (RAW264.7 [1]) [%] | pIC50 (RAW264.7 [2]) | Activity (RAW264.7 [3]) | viability at 20 h [4] [%] | other results
1 | CC[C@@H](C)C[C@]1(C)C=C/C(=C2/C(=O)O[C@H](CC(=O)OC)C2=O)O1 | ≥ 80 | 5.17 | Toxic | – | –
2 | Cc1cc(O)c2c(c1O)C(=O)c1cc(O)cc(O)c1C2=O [CATENARIN] | ≥ 80 | 4.38 | – | > 80 | –
3 | CNC(=N)NCCC[C@H](N)C(=O)O [TILARGININE] | – | 4.66 | – | – | –
4 | C/C=C(\C)c1c(Br)c(O)c(C)c2c1Oc1cc(O)c(Br)c(C)c1C(=O)O2 | ≥ 80 | 4.62 | Toxic | – | –
5 | C/C=C/C1=CC=C/C(=C2\C(=O)CNC2=O)O1 [VERMELHOTIN] | ≥ 80 | 5.27 | – | > 80 | fold change (FC) (RAW264.7 [5]): 13.72; Activity (RAW264.7 [6]): inactive; Activity (RAW264.7 [7]): Active; inhibition (RAW264.7 [8]): Dose-dependent effect; inhibition [9]: Dose-dependent effect; fold change (FC) (RAW264.7 [10]): 144.02; inhibition (RAW264.7 [11]): Dose-dependent effect; fold change (FC) (RAW264.7 [12]): 203.39; inhibition at 16.7 µM (RAW264.7 [13]): > 95%; Activity (RAW264.7 [14]): inactive; inhibition [15]: Active
6 | C/C=C(\C)c1cc(O)c(C)c2c1Oc1cc(O)c(Cl)c(C)c1C(=O)O2 | ≥ 80 | 4.44 | – | > 80 | –
